Tests used:
[1] = test system: mice; experiment: PTZ clonic convulsions and fatal tonic crises in mice; format: in vivo
[2] = test system: mice; experiment: Maximal Electroshock tonic extension; settings: mouse, in vivo
[3] = test system: GABA (B) receptors; experiment: allosteric modulation of GABA (B) receptors
[4] = test system: sodium channels; experiment: allosteric modulation of sodium channels; settings: σ1 induced
[5] = neuropathic pain animal models; format: in vivo; settings: appropriate animal models
[6] = test system: N-methyl-D-aspartic acid (NMDA) glutamatergic receptors; experiment: allosteric modulation of NMDA receptors; settings: σ1 induced
[7] = test system: mice; experiment: Pentylenetetrazole (PTZ) induced behavioral effects and seizures in mice; format: in vivo; settings: Fendiline 1.0 to 50 mg/kg (po), PTZ 10 to 70 mg/kg (ip)
Method: In good agreement with the above receptors affinities and its molecular pharmacological properties, Fendiline, at 1.0 to 50 mg/kg, (po), in mice antagonized all the behavioral effects (in mice) corresponding to the symptoms, in humans, announcing the development of the neurodegenerative and neurodevelopmental diseases, i.e., anxiety, fear, social disconnection, agressivity, compulsive reactions, hypermotility, stereotypic activity, pain, lethargy and seizures, appearing at various degrees according to the amplitude of the Glutamate/GABA imbalance and to the brain regions (Basal Ganglia, Hippocampus, Cortex) affected by the above imbalance. Indeed, all the above behavioral effects (obtained, in mice, by administration of the GABAergic antagonist Pentylenetetrazole (PTZ) at 10 to 70 mg/kg, intraperitoneal (ip): with 10 to 40 mg/kg (ip) giving fear, anxiety, social disconnection, and agressivity, hypermotility and stereotypies—the latter being better expressed by previous (reserpine induced) hypersensibilisation of the brain DA receptors—and seizures (obtained at 50 to 70 mg/kg (ip) of PTZ), were antagonized by Fendiline at 1.0 to 50 mg/kg (po).

[8] = test system: cholinergic muscarinic receptors; experiment: modulation of muscarinic receptors; settings: σ1 induced
[9] = target: T1, sigma-1(σ1) receptor (Mus musculus, UniProt O55242); experiment: sigma-1 agonistic/antagonistic activity in mice; format: in vivo
T1 construct: from tissue; host or cells: whole animal (mice, oral administration)
T1 sequence (O55242 whole entry): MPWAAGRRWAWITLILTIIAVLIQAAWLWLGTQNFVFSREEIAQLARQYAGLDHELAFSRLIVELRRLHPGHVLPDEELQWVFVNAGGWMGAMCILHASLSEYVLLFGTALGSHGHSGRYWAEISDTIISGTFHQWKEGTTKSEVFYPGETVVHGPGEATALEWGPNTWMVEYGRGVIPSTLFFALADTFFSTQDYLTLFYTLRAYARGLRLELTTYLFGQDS

[10] = test system: GABA (A) receptors; experiment: allosteric modulation of GABA (A) receptors

## CC(NCCC(c1ccccc1)c1ccccc1)c1ccccc1 (stereo not shown) [Fendiline, 3,3-diphenyl-N-(1-phenylethyl) propan-1-amine]
[1]; PTZ more than 80 mg/kg (ip), in mice
  protection against fatal tonic crises (tonic extensions), high doses of PTZ: did not protect
[1]; mice
  protection against PTZ clonic convulsions: did not protect
[2]
  protection against fatal tonic crises (tonic extensions), Maximal Electrochock: did not protect
[3]
  modulation of GABA (B) receptors: allosteric positive modulation
[4]
  modulation of sodium channels: negative allosteric modulations
[5]
  effect against neuropathic pain: analgesic effect
[6]
  modulation of NMDA glutamatergic receptors: negative allosteric modulations
[7]
  effect on PTZ induced behavioral effects (fear, anxiety, social disconnection, agressivity, hypermotility, stereotypies, seizures): antagonized
[8]
  modulation of cholinergic muscarinic receptors: discreet negative modulation
[9]; 0,003 to 1.0 mg/kg per os (po), in mice
  sigma-1 activity at low doses: partial agonistic activity
[9]; more than 1.0 mg/kg (po) in mice
  sigma-1 activity at higher doses: antagonistic
[9]; mouse, in vivo
  sigma-1 intrinsic activity: low intrinsic activity
[10]
  modulation of GABA (A) receptors: allosteric positive modulation

— patent US20180193289A1, “PROTOTYPICAL MOLECULAR PHARMACOLOGIC PROFILE OF FENDILINE AGAINST NEURODEGENERATIVE AND NEURODEVELOPMENTAL DISEASES” (priority 2016, published 2018)
